From US20170334877A1, “REVAPRAZAN HYDROCHLORIDE POLYMORPHS AND PREPARATION METHOD THEREFOR” (JIANGSU TASLY DIYI PHARMACEUTICAL CO., LTD., priority 2014, published 2017)
Counter-ions that a name gives are not always drawn.

Key:
Assay type in all cases: physicochemical
[1] = Light illumination test (intense light, 4500±500 Lx); conditions: for Stability (conclusion in words): intense light illumination, no obvious changes in appearance color, loss on drying, purity, relevant substances; for Appearance color / Loss on drying (%) / Purity (%) / Relevant substances: light 4500±500 Lx; for Loss on drying (%) / Purity (%) / Relevant substances: hydrochloride
From the text: Revaprazan hydrochloride crystalline form I is irradiated under such a condition that the light intensity is 4500±500 Lx, and is sampled on the 5th day and 10th day for detection, and the results are shown in Table 1. Revaprazan hydrochloride crystalline form II is irradiated under the condition that the light intensity is 4500±500Lx, and is sampled on the 5th day and 10th day for detection. Revaprazan hydrochloride polymorph III is irradiated under such a condition that the light intensity is 4500±500Lx, and is sampled on the 5th day and 10th day for detection. Revaprazan hydrochloride […] is irradiated under such a condition that the light intensity is 4500±500Lx, and is sampled on the 5th day and the 10th day for detection. Revaprazan hydrochloride crystalline form V is irradiated under the light intensity condition of 4500±500Lx; and is sampled on the 5th day and 10th day for detection.

[2] = High temperature test (60° C. incubator); conditions: for Appearance color / Loss on drying (%) / Purity (%) / Relevant substances: 60° C., hydrochloride; for Stability (conclusion in words): high temperature, no obvious changes in appearance color, loss on drying, purity, relevant substances
Protocol: Revaprazan hydrochloride crystalline form I is placed in a 60° C. incubator, and is sampled on the 5th day and 10th day for detection, and the results are shown in Table 2. Revaprazan hydrochloride crystalline form II is placed in a 60° C. incubator, and is sampled on the 5th day and 10th day for detection, and the results are shown in Table 6. Revaprazan hydrochloride polymorph III is placed in an incubator of 60° C., and is sampled on the 5th day and the 10th day for detection. Revaprazan hydrochloride crystalline form IV is placed in an incubator of 60° C., and is sampled on the 5th day and the 10th day for detection. Revaprazan hydrochloride crystal form 4 is placed in an incubator of 60° C.; and is sampled on the 5th day and the 10th day for detection, and the results are shown in Table 23.

[3] = High humidity test (25° C., relative humidity 75±5%); conditions: for Appearance color / Purity (%) / Relevant substances / Weight gain upon moisture absorption (%): 25° C., RH 75±5%; for Weight gain upon moisture absorption (in words): high humidity condition; for Stability (conclusion in words): high humidity, no obvious changes in appearance color, purity, relevant substances
Protocol: Revaprazan hydrochloride crystalline form I is placed in an incubator of 25° C. (relative humidity of 75±5%), and is sampled on the 5th day and 10th day for detection. Revaprazan hydrochloride crystalline form II is placed in an incubator of 25° C. (relative humidity of 75±5%), and is sampled on the 5th day and 10th day for detection. Revaprazan hydrochloride polymorph III is placed in an incubator of 25° C. (relative humidity of 75±5%), and is sampled on the 5th day and the 10th day for detection. Revaprazan hydrochloride crystalline form IV is placed in an incubator of 25° C. Revaprazan hydrochloride crystal form 4 is placed in an incubator of 25° C. (the relative humidity is 75±5%), and is sampled on the 5th day and the 10th day for detection.

[4] = Accelerated test (40±2° C., relative humidity 75±5%, 6 months, sealed polyethylene film bag); conditions: for Appearance color / Purity (%) / Relevant substances: 40±2° C., RH 75±5%; for Purity (%) / Relevant substances: hydrochloride; for Stability (conclusion in words): accelerated test, no obvious changes in appearance color, purity, relevant substances
Protocol: Revaprazan hydrochloride crystalline form I is sealed in a polyethylene film bag, is placed for 6 months under the conditions that the temperature is 40±2° C. and the relative humidity is 75±5%, and is respectively sampled at the end of the 1st Month, the 2nd Month, the 3rd Month and the 6^thMonth for detection; and the results are shown in Table 4. Revaprazan hydrochloride crystalline form II is sealed in a polyethylene film bag and is placed for 6 months under the conditions that the temperature is 40±2° C. and the relative humidity is 75±5%, and is respectively sampled at the end of the 1st Month, the 2nd Month, the 3rd Month and the 6th Month for detection; and the results are shown in Table 8. Revaprazan hydrochloride crystalline form III is sealed in a polyethylene film bag, is placed for 6 months under the conditions that the temperature is 40±2° C. and the relative humidity is 75±5%, and is sampled at the end of the 1st Month, the 2nd Month, the 3rd Month and the 6th Month for detection. Revaprazan hydrochloride crystalline form IV is sealed in a polyethylene film bag, is placed for 6 months under the conditions that the temperature is 40±2° C. and the relative humidity is 75±5%, and is sampled at the end of the 1st Month, the 2nd Month, the 3rd Month and the 6th Month for detection. Revaprazan hydrochloride crystalline form V is sealed in a polyethylene film bag and is placed for 6 months under the condition that the temperature is 40±2° C. and the relative humidity is 75±5%, and is sampled at the end of the 1st month, the 2nd month, the 3rd month and the 6th month for detection, and the results are shown in Table 20.

[5] = 5th day, listed as revaprazan hydrochloride polymorph III
[6] = 10th day, listed as revaprazan hydrochloride polymorph III
[7] = Day 0, listed as revaprazan hydrochloride polymorph III

## Cc1nc(Nc2ccc(F)cc2)nc(N2CCc3ccccc3C2C)c1C (single isomer, unassigned) [revaprazan hydrochloride crystalline form III]
[1]
  Stability (conclusion in words): stable
[1]; 5th day
  Appearance color: White powder
[1]; [5]
  Loss on drying (%): 0.25%
  Purity (%): 99.92%
  Relevant substances: Undetected
[1]; 10th day
  Appearance color: White powder
[1]; [6]
  Loss on drying (%): 0.29%
  Purity (%): 99.95%
  Relevant substances: Undetected
[1]; Day 0
  Appearance color: White powder
[1]; [7]
  Loss on drying (%): 0.28%
  Purity (%): 99.95%
  Relevant substances: Undetected
[2]; [5]
  Appearance color: White powder
  Loss on drying (%): 0.26%
  Purity (%): 99.94%
  Relevant substances: Undetected
[2]; [6]
  Appearance color: White powder
  Loss on drying (%): 0.26%
  Purity (%): 99.92%
  Relevant substances: Undetected
[2]; [7]
  Appearance color: White powder
  Loss on drying (%): 0.22%
  Purity (%): 99.95%
  Relevant substances: Undetected
[2]
  Stability (conclusion in words): stable
[3]; 5th day
  Appearance color: White powder
[3]; 5th day, hydrochloride
  Purity (%): 99.92%
  Relevant substances: Undetected
  Weight gain upon moisture absorption (%): 0.47%
[3]; 10th day
  Appearance color: White powder
[3]; 10th day, hydrochloride
  Purity (%): 99.94%
  Relevant substances: Undetected
  Weight gain upon moisture absorption (%): 0.59%
[3]; Day 0
  Appearance color: White powder
  Weight gain upon moisture absorption (%): 0%
[3]; Day 0, hydrochloride
  Purity (%): 99.95%
  Relevant substances: Undetected
[3]
  Weight gain upon moisture absorption (in words): slight weight gain
  Stability (conclusion in words): stable
[4]; 1st month
  Appearance color: White powder
  Purity (%): 99.92%
  Relevant substances: Undetected
[4]; 2nd month
  Appearance color: White powder
  Purity (%): 99.91%
  Relevant substances: Undetected
[4]; 3rd month
  Appearance color: White powder
  Purity (%): 99.93%
  Relevant substances: Undetected
[4]; 6th month
  Appearance color: White powder
  Purity (%): 99.95%
  Relevant substances: Undetected
[4]; Month 0
  Appearance color: White powder
  Purity (%): 99.95%
  Relevant substances: Undetected
[4]
  Stability (conclusion in words): stable

## Cc1nc(Nc2ccc(F)cc2)nc(N2CCc3ccccc3C2C)c1C (single isomer, unassigned) [revaprazan hydrochloride crystalline form II]
[1]
  Stability (conclusion in words): stable
[1]; 5th day
  Appearance color: White powder
  Loss on drying (%): 0.26%
  Purity (%): 99.97%
  Relevant substances: Not detected
[1]; 10th day
  Appearance color: White powder
  Loss on drying (%): 0.28%
  Purity (%): 99.94%
  Relevant substances: Not detected
[1]; Day 0
  Appearance color: White powder
  Loss on drying (%): 0.25%
  Purity (%): 99.94%
  Relevant substances: Not detected
[2]; 5th day
  Appearance color: White
  Loss on drying (%): 0.27%
  Purity (%): 99.97%
  Relevant substances: Not detected
[2]; 10th day
  Appearance color: White
  Loss on drying (%): 0.29%
  Purity (%): 99.95%
  Relevant substances: Not detected
[2]; Day 0
  Appearance color: White
  Loss on drying (%): 0.23%
  Purity (%): 99.94%
  Relevant substances: Not detected
[2]
  Stability (conclusion in words): stable
[3]; 5th day
  Appearance color: White powder
[3]; 5th day, hydrochloride
  Purity (%): 99.93%
  Relevant substances: Not detected
  Weight gain upon moisture absorption (%): 0.42%
[3]; 10th day
  Appearance color: White powder
[3]; 10th day, hydrochloride
  Purity (%): 99.95%
  Relevant substances: Not detected
  Weight gain upon moisture absorption (%): 0.64%
[3]; Day 0
  Appearance color: White powder
  Weight gain upon moisture absorption (%): 0%
[3]; Day 0, hydrochloride
  Purity (%): 99.94%
  Relevant substances: Not detected
[3]
  Weight gain upon moisture absorption (in words): slight weight gain
  Stability (conclusion in words): stable
[4]; 1st month
  Appearance color: White powder
  Purity (%): 99.93%
[4]; 2nd month
  Appearance color: White powder
  Purity (%): 99.95%
[4]; 3rd month
  Appearance color: White powder
  Purity (%): 99.96%
[4]; 6th month
  Appearance color: White powder
  Purity (%): 99.95%
[4]; Month 0
  Appearance color: White powder
  Purity (%): 99.94%
[4]
  Stability (conclusion in words): stable
